Measured values: publication PMC7857480 (The Journal of Biological Chemistry, 2020)

Molecular target: FigC (Francisella tularensis, UniProt Q15EG8)
Details: covalent (Schiff base with K63); active site at dimer interface

Sequence of FigC (Q15EG8 1-417): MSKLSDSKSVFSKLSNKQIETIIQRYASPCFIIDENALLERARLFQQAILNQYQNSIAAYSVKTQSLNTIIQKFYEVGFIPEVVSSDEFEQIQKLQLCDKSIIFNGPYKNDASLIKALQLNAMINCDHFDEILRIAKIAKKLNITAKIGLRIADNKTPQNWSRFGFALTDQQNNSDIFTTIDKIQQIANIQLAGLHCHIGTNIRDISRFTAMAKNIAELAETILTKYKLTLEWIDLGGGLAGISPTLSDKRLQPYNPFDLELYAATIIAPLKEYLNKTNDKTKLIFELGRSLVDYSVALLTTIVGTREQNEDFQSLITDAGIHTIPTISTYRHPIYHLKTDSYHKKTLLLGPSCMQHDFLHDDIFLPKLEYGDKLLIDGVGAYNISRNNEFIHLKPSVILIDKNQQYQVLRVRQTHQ

## Cc1ncc(COP(=O)(O)O)c(C=O)c1O [PLP]
  X-ray crystal structure, 2.1 Å, SeMet SAD: all four active sites showed good density for the cofactor PLP
